The subject of experiment [1] is peripheral opioid receptors. Briefly: mouse diarrhea test: precipitated diarrhea in morphine-maintained mice (peripheral opioid activity). Format: in vivo.
In experiment [2] the target is peripheral opioid receptors (Mus musculus, UniProt P42866). Described as above. Format: in vivo. To be noted: mouse diarrhea test, morphine-maintained mice, subcutaneous or oral, 30 min observation.
Experiment [3] addresses T1, mu receptor (Rattus norvegicus, UniProt P33535).
T1 construct: The brain tissue, rat whole brain minus cerebellum for mu was homogenized; from tissue; host or cells: brain minus cerebellum of male Sprague Dawley rats, homogenate fraction
As to the kind of experiment: Naloxone [3H] opioid receptor binding assay (mu receptor). On the set-up: species or system rat (male Sprague Dawley).

In experiment [4] the target is T2, opioid receptor (Mus musculus, UniProt P42866).
T2 construct: Five CF-1 male mice (Charles River, Portage, MI); from tissue; host or cells: living CF-1 male mice (whole animal, endogenous receptor)
Briefly: in vivo. On the set-up: species or system CF-1 male mice. The settings on record: sc.

The mark [5] stands for this setting: AD50 mouse writhing / ED50 mouse diarrhea, higher = greater relative peripheral antagonism.
Setting [6] is: 20 min, pH 7.4, read-out: % displacement at 10 nM.
The mark [7] stands for this setting: 20 min, pH 7.4, read-out: % displacement at 100 nM.
[8] abbreviates: […], rat whole brain minus cerebellum, [3H]naloxone 0.5 nM, pH 7.4, 37° C., 20 min, read-out: Ki.
Where [9] appears, read: mouse writhing test, […], s.c. 20 min before acetic acid, read-out: AD50 (the source's name).
The mark [10] stands for this setting: 20 min, pH 7.4, 10 nM test compound, [3H]naloxone 0.5 nM, mu receptor, read-out: % displacement at 10 nM.
Where [11] appears, read: 20 min, pH 7.4, 100 nM test compound, [3H]naloxone 0.5 nM, mu receptor, read-out: % displacement at 100 nM.

Consider 14 molecules from patent US5159081A, “Intermediates of peripherally selective N-carbonyl-3,4,4-trisubstituted piperidine opioid antagonists” (Eli Lilly and Company, priority 1991, dated 1992).

The structures appear in SMILES notation. Counter-ions that a name gives are not always drawn. Like-named read-outs stand apart in the source and are kept apart here. Where only a bound is given, the exact number is not on record here.

T2 sequence (P42866 whole entry): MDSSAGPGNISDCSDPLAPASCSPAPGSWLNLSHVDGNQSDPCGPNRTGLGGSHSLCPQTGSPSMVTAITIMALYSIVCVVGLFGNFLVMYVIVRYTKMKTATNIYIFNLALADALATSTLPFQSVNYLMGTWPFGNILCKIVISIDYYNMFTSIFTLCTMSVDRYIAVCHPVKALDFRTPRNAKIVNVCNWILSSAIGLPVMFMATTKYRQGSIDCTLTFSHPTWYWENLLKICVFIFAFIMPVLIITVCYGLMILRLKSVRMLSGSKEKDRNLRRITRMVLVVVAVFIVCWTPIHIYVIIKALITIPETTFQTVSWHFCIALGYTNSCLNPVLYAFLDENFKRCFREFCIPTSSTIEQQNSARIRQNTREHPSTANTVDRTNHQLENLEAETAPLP
peripheral opioid receptors (Mus musculus, UniProt P42866), sequence (P42866 whole entry): as above
T1 sequence (P33535 whole entry): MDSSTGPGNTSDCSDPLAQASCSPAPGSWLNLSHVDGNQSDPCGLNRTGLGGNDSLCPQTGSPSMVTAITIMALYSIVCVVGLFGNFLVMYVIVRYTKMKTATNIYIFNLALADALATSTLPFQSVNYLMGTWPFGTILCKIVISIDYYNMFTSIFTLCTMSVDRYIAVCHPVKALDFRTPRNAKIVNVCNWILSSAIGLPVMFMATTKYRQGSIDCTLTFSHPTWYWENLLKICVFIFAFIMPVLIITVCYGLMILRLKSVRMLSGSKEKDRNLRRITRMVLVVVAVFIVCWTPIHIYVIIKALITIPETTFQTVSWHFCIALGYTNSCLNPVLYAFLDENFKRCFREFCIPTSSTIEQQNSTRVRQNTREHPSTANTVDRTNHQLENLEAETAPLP

A word on the Ki: it is the equilibrium dissociation constant of an inhibitor or competing ligand from its target. For `CCOC(=O)CCC(=O)NC(CCN1CC[C@@](C)(c2cccc(O)c2)[C@@H](C)C1)CC(C)C` (some centres unmarked) [Example 2B, 4-[[1-[2-[4-(3-hydroxyphenyl)-3,4-dimethyl-1-piperidinyl]-ethyl]-3-methylbutyl)amino]-4-oxobutanoic acid ethyl ester], the “Ratio (ratio of AD50 to ED50)” value in experiment [1] (setting [5]) came out at 54. The ED50 in experiment [2] was 0.19 mg/kg; in experiment [4] (setting [9]), 10.2 mg/kg. Besides, the inhibition at 0.01 µM in experiment [3] (setting [6]) stood at 93%. In addition, the inhibition at 0.1 µM in experiment [3] (setting [7]) was 99%. In addition, the inhibitory constant (Ki) in experiment [3] (setting [8]) was found to be 1.2 nM.

For the molecule `CC(C)CC(CCN1CC[C@@](C)(c2cccc(O)c2)[C@@H](C)C1)NC(=O)CCCC(=O)O` (some centres unmarked) [Example 4, 5-[[1-(2-methylpropyl)-3-[4-(3-hydroxyphenyl)-3,4-dimethyl-1-piperidinyl]propyl]amino]-5-oxopentanoic acid], the “Ratio (ratio of AD50 to ED50)” value in experiment [1] (mouse, in vivo) came out at 250. Also, the ED50 is 0.07 mg/kg in experiment [2] and 17.5 mg/kg in experiment [4] (mouse, read-out: AD50). Moreover, the affinity in experiment [3], expressed as Ki, was 1.41 nM. Further, the inhibition at 0.01 µM in experiment [3] (setting [6]) stood at 86%. For the same molecule, the inhibition at 0.1 µM in experiment [3] (setting [7]) came out at 94%.

As for `CCOC(=O)CC(=O)N[C@H](Cc1ccccc1)CN1CC[C@@](C)(c2cccc(O)c2)[C@@H](C)C1` [Example 10, Ethyl trans-(3R,4R,R)-3-((2-(4-(3-hydroxyphenyl)-3,4-dimethyl-1-piperidinyl)-1-(D-(phenylmethyl)ethyl)amino))-3-oxopropionate hydrochloride], the “Ratio (ratio of AD50 to ED50)” value in experiment [1] (setting [5]) was found to be 78. Also, the ED50 in experiment [2] was 0.12 mg/kg; in experiment [4] (setting [9]), 9.3 mg/kg. The inhibition at 0.01 µM in experiment [3] (setting [6]) was 61%. Besides, the inhibition at 0.1 µM in experiment [3] (setting [7]) was 94%. Further, the Ki in experiment [3] (setting [8]) turned out to be 1.46 nM.

As for `C[C@H]1CN(C[C@@H](Cc2ccccc2)NC(=O)CC(=O)O)CC[C@@]1(C)c1cccc(O)c1` [Example 11, Trans-3-((2-(4-(3-hydroxyphenyl)-3,4-dimethyl-1-piperidinyl)-1-(D-(phenylmethyl)ethyl)amino))-3-oxopropionic acid], the “Ratio (ratio of AD50 to ED50)” value in experiment [1] (setting [5]) worked out at 41. In addition, the ED50 was 0.3 mg/kg in experiment [2] (0.5 h, read-out: ED50) and 12.4 mg/kg in experiment [4] (setting [9]). In addition, the inhibition at 0.01 µM in experiment [3] (setting [10]) was determined as 36%. Besides, the inhibition at 0.1 µM in experiment [3] (setting [11]) is 80%.

With `CCOC(=O)CC(=O)N[C@H](Cc1ccccc1)CN1CC[C@](C)(c2cccc(O)c2)[C@H](C)C1` [Example 12, Ethyl trans-3-((2-(4-(3-hydroxyphenyl)-3,4-dimethyl-1-piperidinyl)-1-(D-(phenylmethyl)ethyl)amino))-3-oxopropionate hydrochloride], the “Ratio (ratio of AD50 to ED50)” value in experiment [1] (mouse, in vivo) was determined as 100. For the same molecule, the ED50 in experiment [2] came to 0.20 mg/kg; in experiment [4] (setting [9]) it was 20 mg/kg. The inhibition at 0.01 µM in experiment [3] (setting [6]) was determined as 43%. For the same molecule, in experiment [3] (setting [7]), the inhibition at 0.1 µM was 87%.

For the molecule `C[C@@H]1CN(C[C@@H](Cc2ccccc2)NC(=O)CC(=O)O)CC[C@]1(C)c1cccc(O)c1` [Example 13, Trans-3-((2-(4-(3-hydroxyphenyl)-3,4-dimethyl-1-piperidinyl)-1-(D-(phenylmethyl)ethyl)amino))-3-oxopropionic acid monohydrate], the “Ratio (ratio of AD50 to ED50)” value in experiment [1] (setting [5]) was above 138. For the same molecule, the ED50 in experiment [2] (0.5 h, read-out: ED50) was 0.29 mg/kg; in experiment [4] (setting [9]), above 40 mg/kg. Besides, the inhibition at 0.01 µM in experiment [3] (setting [10]) is 24%. Further, the inhibition at 0.1 µM in experiment [3] (setting [11]) is 72%.

Regarding `CCNC(=O)N[C@H](Cc1ccccc1)CN1CC[C@](C)(c2cccc(O)c2)[C@H](C)C1` [Example 17, N-Ethyl-N'-2-(D-(1-(trans-4-(3-hydroxyphenyl)-3,4-dimethyl-1-piperidinyl)-3-phenyl)propyl)urea hydrochloride monohydrate], in experiment [1] (setting [5]), the “Ratio (ratio of AD50 to ED50)” value was above 12. Besides, the ED50 in experiment [2] (0.5 h, read-out: ED50) was 3.28 mg/kg; in experiment [4] (setting [9]), above 40 mg/kg. Also, the inhibition at 0.01 µM in experiment [3] (setting [10]) came out at 38%. The inhibition at 0.1 µM in experiment [3] (setting [11]) is 82%.

As to `C[C@H]1CN(CC(Cc2ccccc2)NC(=O)CCCNC(=O)OC(C)(C)C)CC[C@@]1(C)c1cccc(O)c1` (stereo partly drawn) [Example 18, Trans-(4-((1-((4-(3-hydroxyphenyl)-3,4-dimethyl-1-piperidinyl)methyl)-2-phenylethyl)amino)-4-oxobutyl) carbamic acid, 1,1 dimethylethyl ester monohydrochloride], in experiment [1] (setting [5]), the “Ratio (ratio of AD50 to ED50)” value was 4.5. Besides, the figures for the ED50 in experiment [2] and in experiment [4] (setting [9]) were 0.30 mg/kg and 1.31 mg/kg, respectively. The inhibition at 0.01 µM in experiment [3] (setting [6]) was 86%. Further, the inhibition at 0.1 µM in experiment [3] (setting [7]) was determined as 100%. The Ki in experiment [3] (setting [8]) was 0.63 nM.

On to `CC(=O)NC(CCCNC(=N)N[N+](=O)[O-])C(=O)NCCN1CCC(C)(c2cccc(O)c2)C(C)C1` (stereo not drawn) [Example 42, N-(2-(trans-4-(3-hydroxyphenyl)-3,4-dimethyl-1-piperidinyl)ethyl)-2-(acetylamino)-5-((imino(nitroamino)-methyl)amino)pentanamide monohydrate], for which the “Ratio (ratio of AD50 to ED50)” value in experiment [1] (setting [5]) is listed as above 160. For the same molecule, the ED50 in experiment [2] (0.5 h, read-out: ED50) was 0.12 mg/kg; in experiment [4] (setting [9]) it was above 20 mg/kg. Moreover, the inhibition at 0.01 µM in experiment [3] (setting [10]) was determined as 44%. Besides, the inhibition at 0.1 µM in experiment [3] (setting [11]) is 89%.

As for `CC(C)CC(=O)NC(CCCNC(=N)N[N+](=O)[O-])C(=O)NCCN1CCC(C)(c2cccc(O)c2)C(C)C1` (stereo not drawn) [Example 43, Trans-N-(2-(4-(3-hydroxyphenyl)-3,4-dimethyl-1-piperidinyl)ethyl)-2-((3-methyl-1-oxobutyl)amino)-5-((imino(nitroamino)methyl)amino) pentanamide], in experiment [1] (setting [5]), the “Ratio (ratio of AD50 to ED50)” value is above 10. Besides, the ED50 is below 1 mg/kg in experiment [2] (0.5 h, read-out: ED50) and above 10 mg/kg in experiment [4] (setting [9]). Also, in experiment [3] (setting [10]), the inhibition at 0.01 µM worked out at 59%. Moreover, in experiment [3] (setting [11]), the inhibition at 0.1 µM amounted to 97%.

Take `CC1CN(CCNC(=O)[C@H](CCCNC(=N)N[N+](=O)[O-])NC(=O)OC(C)(C)C)CCC1(C)c1cccc(O)c1` (stereo partly drawn) [Example 44, (1-(((2-(Trans-4-(3-hydroxyphenyl)-3,4-dimethyl-1-piperidinyl)ethyl)amino)carbonyl)-4-((imino(nitroamino)methyl)amino)butyl) carbamic acid, 1,1-dimethylethyl ester]: the “Ratio (ratio of AD50 to ED50)” value in experiment [1] (setting [5]) is given as above 30. The ED50 in experiment [2] was 0.07 mg/kg; in experiment [4] (setting [9]) it was above 2 mg/kg. Moreover, the inhibition at 0.01 µM in experiment [3] (setting [6]) was 63%. Also, the inhibition at 0.1 µM in experiment [3] (setting [7]) is 85%. Besides, in experiment [3] (setting [8]), the inhibition constant (Ki) was 2.34 nM.

With `C[C@H]1CN(C[C@H](CC2CCCCC2)NC(=O)CCCC(=O)O)CC[C@@]1(C)c1cccc(O)c1` [Example 45D], in experiment [1] (setting [5]), the “Ratio (ratio of AD50 to ED50)” value is above 1379. Besides, the ED50 was 0.029 mg/kg in experiment [2] and above 40 mg/kg in experiment [4] (setting [9]). Besides, the inhibition at 0.01 µM in experiment [3] (setting [6]) was 82%. Besides, the inhibition at 0.1 µM in experiment [3] (setting [7]) worked out at 94%. In experiment [3] (setting [8]), the inhibitory constant (Ki) came to 0.56 nM.

In the case of `C[C@H]1CN(C[C@@H](CC2CCCCC2)NC(=O)CCCC(=O)O)CC[C@@]1(C)c1cccc(O)c1` [Example 46D], the “Ratio (ratio of AD50 to ED50)” value in experiment [1] (setting [5]) turned out to be 72. The ED50 came out at 0.09 mg/kg in experiment [2] and 6.5 mg/kg in experiment [4] (setting [9]). In experiment [3] (setting [6]), the inhibition at 0.01 µM stood at 48%. In experiment [3] (setting [7]), the inhibition at 0.1 µM worked out at 84%.

On to `C[C@@H]1CN(C[C@H](CC2CCCCC2)NC(=O)CCCC(=O)O)CC[C@]1(C)c1cccc(O)c1` [Example 47D], for which the “Ratio (ratio of AD50 to ED50)” value in experiment [1] (setting [5]) is above 4000. The ED50 in experiment [2] is 0.01 mg/kg; in experiment [4] (setting [9]), above 40 mg/kg. The inhibition at 0.01 µM in experiment [3] (setting [6]) was determined as 85%. Moreover, the inhibition at 0.1 µM in experiment [3] (setting [7]) was determined as 95%. Further, in experiment [3] (setting [8]), the inhibition constant (Ki) amounted to 1.55 nM.
